Reference: paper PMC13377601, “Discovery of VU6066098: A Selective and CNS-Penetrant mGlu2 NAM with Robust Antidepressant‑, Antipsychotic‑, and Procognitive-like Activity in Rodents” (ACS Chemical Neuroscience, 2026)

Molecular target: T1, human mGlu2 (Homo sapiens, UniProt Q14416)
T1 construct: expressed in transfected cells; host or cells: HEK293 stably co-expressing GIRK channels
Assay: mGlu2/GIRK thallium flux assay (human)
Type: cell-based
Conditions: NAM vs glutamate EC80
Procedure: Molecular Pharmacolgy Methods
Assessment of Cellular Potency of mGlu2 compounds in Thallium Flux Assay Human embryonic kidney 293 (HEK293) cell lines stably co-expressing human or rat mGlu2 and G protein-coupled inwardly rectifying potassium (GIRK) channels were maintained in growth medium containing DMEM/F12 containing 10% FBS, 20 mM HEPES, 1 mM sodium pyruvate, 2 mM L-glutamine, non-essential amino acids mixture, 1X Antibiotic/Antimycotic, 700 μg/mL G418, and 0.6 μg/mL puromycin. […]
Using a microplate washer (BioTek, Winooski, VT), cells were washed with GIRK assay buffer 4 times to remove media. […] The compound, agonist, and cell plates were placed inside the Functional Drug Screening System (FDSS 7000 or µCell kinetic imaging plate reader, Hamamatsu, Japan) to measure the thallium flux using a double add protocol. After establishment of a fluorescence baseline (excitation, 480 nm; emission, 530 nm), 20 µL (2x) of test compound was added to the cells at 2 seconds and the response was measured. 140 seconds later, 10 µL (5x) of an EC80 concentration of glutamate or vehicle in thallium stimulus buffer was added to the cells, and the response of the cells was measured for an additional 158 seconds. […] Fluorescence was measured […]
The average of all baseline slopes (no compound, no glutamate) was determined and this value was subtracted from all other slope values.

T1 sequence (Q14416 19-872): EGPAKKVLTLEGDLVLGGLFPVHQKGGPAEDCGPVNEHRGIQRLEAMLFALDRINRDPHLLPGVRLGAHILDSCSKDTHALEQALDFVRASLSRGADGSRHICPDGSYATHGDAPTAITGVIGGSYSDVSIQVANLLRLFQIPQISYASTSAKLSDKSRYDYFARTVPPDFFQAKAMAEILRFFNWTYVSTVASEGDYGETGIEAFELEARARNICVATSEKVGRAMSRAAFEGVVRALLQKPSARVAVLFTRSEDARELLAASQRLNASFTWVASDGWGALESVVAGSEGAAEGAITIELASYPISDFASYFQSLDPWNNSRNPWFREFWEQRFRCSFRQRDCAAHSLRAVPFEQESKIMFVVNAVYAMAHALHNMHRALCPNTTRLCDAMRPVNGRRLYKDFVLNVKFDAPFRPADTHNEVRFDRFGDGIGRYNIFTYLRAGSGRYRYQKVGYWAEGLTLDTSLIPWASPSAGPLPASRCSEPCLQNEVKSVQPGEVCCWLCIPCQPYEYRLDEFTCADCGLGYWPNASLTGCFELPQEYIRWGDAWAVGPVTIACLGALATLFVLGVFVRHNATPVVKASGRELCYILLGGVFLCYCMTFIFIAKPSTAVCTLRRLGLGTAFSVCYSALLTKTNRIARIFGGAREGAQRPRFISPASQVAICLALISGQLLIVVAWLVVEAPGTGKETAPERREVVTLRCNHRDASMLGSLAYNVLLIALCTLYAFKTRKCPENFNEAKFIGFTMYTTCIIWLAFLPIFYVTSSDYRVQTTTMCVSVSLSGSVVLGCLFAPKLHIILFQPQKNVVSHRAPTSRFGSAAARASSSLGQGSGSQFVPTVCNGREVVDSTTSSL

Cn1ccc(COc2cnc(C(N)=O)cc2-c2ccc(F)cc2)n1 [NAM 5]
IC50: 0.078 µM
